Laboratory results: patent US20240025883A1, “PYRIMIDIN-2-YL SULFONAMIDE DERIVATIVES” (Hoffmann-La Roche Inc., priority 2021, published 2024)

These compounds were tested against human GPR17 short isoform (Homo sapiens (Human), UniProt Q13304) (assay: GPR17 cAMP assay (hGPR17 cAMP, antagonist mode against EC80 of MDL29,951)). Details: CHO-K1 cells stably expressing human GPR17 short isoform; EC80 of agonist MDL29,951; forskolin 15 μM.
Type: cell-based
Method: GPR17 cAMP Assay Protocol:
CHO-K1 cells stably expressing vector containing untagged human GPR17 short isoform (Roche) were cultured at 37° C./5% CO2 in DMEM (Dulbecco's Modified Eagle Medium):F-12 (1:1) supplemented with 10% foetal bovine serum and 400 μg/ml Geneticin.
Changes in intracellular cyclic adenosine monophosphate (cAMP) levels were quantified using the Nano-TRF Detection Assay kit (Roche Diagnostics, Cat. No. 05214386001). This assay allows for direct cAMP quantification in a homogeneous solution, cAMP is detected based on time-resolved fluorescence energy transfer (TR-FRET) and competitive binding of ruthenylated cAMP and endogenous cAMP to an anti-cAMP monoclonal antibody labeled with AlexaFluor-700. The Ruthenium complex serves as the FRET donor and transfers energy to AlexaFluor-700. The FRET signal is inversely proportional to the cAMP concentration.
CHO-GPR17S cells were detached with Accutase and resuspended in assay buffer consisting of Hank's Balanced Salt Solution (HBSS), 10 mM HEPES (4-(2-hydroxyethyl) piperazine-1-ethanesulfonic acid solution) and 0.1% bovine serum albumin (pH 7.4). The cells were seeded in black 384-well plates (Corning) at a density of 10,000 cells/20 μl assay buffer until the addition of compounds.
Test antagonist compounds were serially diluted in dimethyl sulfoxide (DMSO) and spotted in 384-well plates. The compounds were then diluted in HBSS buffer supplemented with an EC80 concentration of MDL29,951 (3-(2-Carboxy-4,6-dichloroindol-3-yl)propionic acid) (GPR17 agonist) plus 3-Isobutyl-1-methylxanthine (IBMX) (0.5 mM final concentration) and added to the cells at room temperature. Forskolin (15 μM final concentration) was added 5 minutes after the test compounds and the cells were incubated at room temperature for 30 minutes. The assay was stopped by adding cAMP detection mix (containing detergents for cell lysis) for 90 minutes at room temperature.
Cellular cAMP was measured using a Paradigm reader (Molecular Devices). The raw data was used to calculate the FRET signal based on the assay's P-factor as per cAMP kit instructions. The data was normalized to the maximal activity of a reference antagonist and dose response curves were fitted to the percent activity of the test compounds using a sigmoidal dose response model (Genedata Screener).

Chain of human GPR17 short isoform (Q13304 29-367): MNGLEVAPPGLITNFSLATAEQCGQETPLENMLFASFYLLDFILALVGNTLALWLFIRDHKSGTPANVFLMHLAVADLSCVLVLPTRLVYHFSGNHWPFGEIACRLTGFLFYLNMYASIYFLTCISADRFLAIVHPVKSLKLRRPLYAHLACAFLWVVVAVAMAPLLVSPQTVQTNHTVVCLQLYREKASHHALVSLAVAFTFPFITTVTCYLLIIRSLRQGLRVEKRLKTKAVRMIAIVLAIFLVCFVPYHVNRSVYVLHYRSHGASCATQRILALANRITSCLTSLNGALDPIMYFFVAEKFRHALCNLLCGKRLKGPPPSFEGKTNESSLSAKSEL

IC50 [nM] | SMILES
287 | COc1nc(NS(=O)(=O)c2c[nH]c3cc(Cl)ccc23)ncc1OCCC(F)F [Example 39, 6-chloro-N-[5-(3,3-difluoropropoxy)-4-methoxy-pyrimidin-2-yl]-1H-indole-3-sulfonamide]
628 | COc1nc(NS(=O)(=O)c2c[nH]c3cc(Cl)ccc23)ncc1OCCC(F)(F)F [Example 40, 6-chloro-N-[4-methoxy-5-(3,3,3-trifluoropropoxy)pyrimidin-2-yl]-1H-indole-3-sulfonamide]
21 | COc1nc(NS(=O)(=O)c2c[nH]c3cc(Cl)ccc23)ncc1OC(F)(F)CF [Example 41, 6-chloro-N-[4-methoxy-5-(1,1,2-trifluoroethoxy)pyrimidin-2-yl]-1H-indole-3-sulfonamide]
194 | COc1nc(NS(=O)(=O)c2c[nH]c3cc(Cl)ccc23)ncc1OC(C)(F)F [Example 42, 6-chloro-N-[5-(1,1-difluoroethoxy)-4-methoxy-pyrimidin-2-yl]-1H-indole-3-sulfonamide]
60 | COc1nc(NS(=O)(=O)c2c[nH]c3cc(Cl)ccc23)ncc1OC(F)(F)C(F)F [Example 43, 6-chloro-N-[4-methoxy-5-(1,1,2,2-tetrafluoroethoxy)pyrimidin-2-yl]-1H-indole-3-sulfonamide]
131 | COc1nc(NS(=O)(=O)c2c[nH]c3cc(Cl)ccc23)ncc1OC(F)(F)C(F)Cl (centres unmarked) [Example 44, 6-chloro-N-[5-(2-chloro-1,1,2-trifluoro-ethoxy)-4-methoxy-pyrimidin-2-yl]-1H-indole-3-sulfonamide]
82 | CCCc1cnc(NS(=O)(=O)c2c[nH]c3cc(Cl)ccc23)nc1OC [Example 45, 6-chloro-N-(4-methoxy-5-propyl-pyrimidin-2-yl)-1H-indole-3-sulfonamide]
918 | COc1nc(NS(=O)(=O)c2c[nH]c3cc(Cl)ccc23)ncc1CC1CC1 [Example 46, 6-chloro-N-[5-(cyclopropylmethyl)-4-methoxy-pyrimidin-2-yl]-1H-indole-3-sulfonamide]
26 | COc1nc(NS(=O)(=O)c2c[nH]c3cc(Cl)ccc23)ncc1CCC(F)F [Example 48, 6-chloro-N-[5-(3,3-difluoropropyl)-4-methoxy-pyrimidin-2-yl]-1H-indole-3-sulfonamide]
809 | COCCc1cnc(NS(=O)(=O)c2c[nH]c3cc(Cl)ccc23)nc1OC [Example 49, 6-chloro-N-[4-methoxy-5-(2-methoxyethyl)pyrimidin-2-yl]-1H-indole-3-sulfonamide]
2790 | COc1nc(NS(=O)(=O)c2c[nH]c3cc(Cl)ccc23)ncc1C1COC1 [Example 50, 6-chloro-N-[4-methoxy-5-(oxetan-3-yl)pyrimidin-2-yl]-1H-indole-3-sulfonamide]
94 | COc1nc(NS(=O)(=O)c2c[nH]c3cc(Cl)ccc23)nc(OC)c1OCF [Example 51, 6-chloro-N-[5-(fluoromethoxy)-4,6-dimethoxy-pyrimidin-2-yl]-1H-indole-3-sulfonamide]
32 | COc1nc(NS(=O)(=O)c2c[nH]c3cc(Cl)ccc23)nc(OC)c1OC(F)F [Example 52, 6-chloro-N-[5-(difluoromethoxy)-4,6-dimethoxy-pyrimidin-2-yl]-1H-indole-3-sulfonamide]
11 | COc1nc(NS(=O)(=O)c2c[nH]c3cc(Cl)ccc23)nc(OC)c1OCCF [Example 53, 6-chloro-N-[5-(2-fluoroethoxy)-4,6-dimethoxy-pyrimidin-2-yl]-1H-indole-3-sulfonamide]
13 | C=CCc1c(OC)nc(NS(=O)(=O)c2c[nH]c3cc(Cl)ccc23)nc1OC [Example 56, N-(5-allyl-4,6-dimethoxy-pyrimidin-2-yl)-6-chloro-1H-indole-3-sulfonamide]
34 | CC#Cc1c(OC)nc(NS(=O)(=O)c2c[nH]c3cc(Cl)ccc23)nc1OC [Example 57, 6-chloro-N-(4,6-dimethoxy-5-prop-1-ynyl-pyrimidin-2-yl)-1H-indole-3-sulfonamide]
17 | CCCc1c(OC)nc(NS(=O)(=O)c2c[nH]c3cc(Cl)ccc23)nc1OC [Example 58, 6-chloro-N-(4,6-dimethoxy-5-propyl-pyrimidin-2-yl)-1H-indole-3-sulfonamide]
13 | COc1nc(NS(=O)(=O)c2c[nH]c3cc(Cl)ccc23)nc(OC)c1CCF [Example 59, 6-chloro-N-[5-(2-fluoroethyl)-4,6-dimethoxy-pyrimidin-2-yl]-1H-indole-3-sulfonamide]

IC50 [nM] | SMILES
8 | COc1nc(NS(=O)(=O)c2c[nH]c3cc(Cl)ccc23)nc(OC)c1CC(F)F [Example 60, 6-chloro-N-[5-(2,2-difluoroethyl)-4,6-dimethoxy-pyrimidin-2-yl]-1H-indole-3-sulfonamide]
7 | COc1nc(NS(=O)(=O)c2c[nH]c3cc(Cl)ccc23)nc(OC)c1CCCF [Example 61, 6-chloro-N-[5-(3-fluoropropyl)-4,6-dimethoxy-pyrimidin-2-yl]-1H-indole-3-sulfonamide]
12 | COc1nc(NS(=O)(=O)c2c[nH]c3cc(Cl)ccc23)nc(OC)c1CCC(F)F [Example 62, 6-chloro-N-[5-(3,3-difluoropropyl)-4,6-dimethoxy-pyrimidin-2-yl]-1H-indole-3-sulfonamide]
182 | COc1nc(NS(=O)(=O)c2c[nH]c3cc(Cl)ccc23)nc(OC)c1CC(C)(F)F [Example 63, 6-chloro-N-[5-(2,2-difluoropropyl)-4,6-dimethoxy-pyrimidin-2-yl]-1H-indole-3-sulfonamide]
39 | COc1nc(NS(=O)(=O)c2c[nH]c3cc(Cl)ccc23)nc(OC)c1CCC(F)(F)F [Example 64, 6-chloro-N-[4,6-dimethoxy-5-(3,3,3-trifluoropropyl)pyrimidin-2-yl]-1H-indole-3-sulfonamide]
61 | COCc1c(OC)nc(NS(=O)(=O)c2c[nH]c3cc(Cl)ccc23)nc1OC [Example 65, 6-chloro-N-[4,6-dimethoxy-5-(methoxymethyl)pyrimidin-2-yl]-1H-indole-3-sulfonamide]
19 | COCCc1c(OC)nc(NS(=O)(=O)c2c[nH]c3cc(Cl)ccc23)nc1OC [Example 66, 6-chloro-N-[4,6-dimethoxy-5-(2-methoxyethyl)pyrimidin-2-yl]-1H-indole-3-sulfonamide]
65 | COc1nc(NS(=O)(=O)c2c[nH]c3cc(Cl)ccc23)nc(OC)c1CC#N [Example 67, 6-chloro-N-[5-(cyanomethyl)-4,6-dimethoxy-pyrimidin-2-yl]-1H-indole-3-sulfonamide]
9 | COc1nc(NS(=O)(=O)c2c[nH]c3cc(Cl)ccc23)nc(OC)c1CCC#N [Example 68, 6-chloro-N-[5-(2-cyanoethyl)-4,6-dimethoxy-pyrimidin-2-yl]-1H-indole-3-sulfonamide]
14 | COc1nc(NS(=O)(=O)c2c[nH]c3cc(Cl)ccc23)nc(OC)c1C1CC1 [Example 69, 6-chloro-N-(5-cyclopropyl-4,6-dimethoxy-pyrimidin-2-yl)-1H-indole-3-sulfonamide]
2740 | COCCOc1nc(NS(=O)(=O)c2c[nH]c3cc(Cl)ccc23)nc(OC)c1Br [Example 70, N-[5-bromo-4-methoxy-6-(2-methoxyethoxy)pyrimidin-2-yl]-6-chloro-1H-indole-3-sulfonamide]
11500 | COc1nc(NS(=O)(=O)c2c[nH]c3cc(Cl)ccc23)nc(OC2CC2)c1Br [Example 71, N-[5-bromo-4-(cyclopropoxy)-6-methoxy-pyrimidin-2-yl]-6-chloro-1H-indole-3-sulfonamide]
40 | COc1nc(NS(=O)(=O)c2c[nH]c3cc(Cl)ccc23)nc(OC(F)F)c1C [Example 72, 6-chloro-N-[4-(difluoromethoxy)-6-methoxy-5-methyl-pyrimidin-2-yl]-1H-indole-3-sulfonamide]
124 | COc1nc(NS(=O)(=O)c2c[nH]c3cc(Cl)ccc23)nc(F)c1Br [Example 73, N-(5-bromo-4-fluoro-6-methoxy-pyrimidin-2-yl)-6-chloro-1H-indole-3-sulfonamide]
946 | COc1nc(NS(=O)(=O)c2c[nH]c3cc(Cl)ccc23)nc(Cl)c1OC [Example 75, 6-chloro-N-(4-chloro-5,6-dimethoxy-pyrimidin-2-yl)-1H-indole-3-sulfonamide]
916 | O=S(=O)(Nc1ncc(OCC(F)F)c(Cl)n1)c1c[nH]c2cc(Cl)ccc12 [Example 76, 6-chloro-N-[4-chloro-5-(2,2-difluoroethoxy)pyrimidin-2-yl]-1H-indole-3-sulfonamide]
148 | CCc1nc(NS(=O)(=O)c2c[nH]c3cc(Cl)ccc23)nc(OC)c1OCC(F)F [Example 77, 6-chloro-N-[5-(2,2-difluoroethoxy)-4-ethyl-6-methoxy-pyrimidin-2-yl]-1H-indole-3-sulfonamide]
